In PubChem BioAssay (NCI):
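Step 1: Grow cells in 96-well plates. Step 2: Expose to compound for 48 hours at 5 concentrations. Step 3: Interpolate endpoints linearly; if unreached, use highest concentration. At the GI50, growth is halved. TGI marks complete inhibition of growth.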

Tests used:
Experiment in all cases: inhibition of tumour cell growth, NCI panel, 48 h
K-562 leukemia = tested on: K-562 leukemia
NCI-H522 lung = tested on: NCI-H522 lung
HCT-15 colon = tested on: HCT-15 colon
COLO 205 colon = tested on: COLO 205 colon
NCI-H23 lung = tested on: NCI-H23 lung
CCRF-CEM leukemia = tested on: CCRF-CEM leukemia
IGROV1 ovarian = tested on: IGROV1 ovarian
SF-295 CNS = tested on: SF-295 CNS
UO-31 renal = tested on: UO-31 renal
SF-539 CNS = tested on: SF-539 CNS

Work on `COc1cc2c(cc1NC(=O)C(Cl)Cl)-c1ccc(NC(=O)C(Cl)Cl)cc1C2` yielded a GI50 (K-562 leukemia) of 0.438 µM, a TGI (K-562 leukemia) of 3.64 µM and a GI50 (NCI-H522 lung) of 5.83 µM. It also gave a TGI (NCI-H522 lung) of 19.7 µM, a GI50 (HCT-15 colon) of 0.354 µM and a TGI (HCT-15 colon) of 1.94 µM. The GI50 (COLO 205 colon) was 0.407 µM, the TGI (COLO 205 colon) was 1.1 µM and the GI50 (NCI-H23 lung) was 2.52 µM. It also gave a TGI (NCI-H23 lung) of 12.5 µM, a GI50 (CCRF-CEM leukemia) of 12.1 µM and a TGI (CCRF-CEM leukemia) of 98.6 µM. For the same compound, the GI50 (IGROV1 ovarian) was 1.16 µM, the TGI (IGROV1 ovarian) was 5.58 µM and the GI50 (SF-295 CNS) was 0.371 µM. The TGI (SF-295 CNS) was 1.12 µM, the GI50 (UO-31 renal) was 0.73 µM and the TGI (UO-31 renal) was 2.75 µM. The GI50 (SF-539 CNS) was 0.633 µM and the TGI (SF-539 CNS) was 2.22 µM.

`O=c1[nH]c(=S)[nH]c(-c2ccccc2)c1Cc1c(O)ccc2ccccc12` was tested, and the TGI (K-562 leukemia) was greater than 100 µM, the TGI (NCI-H522 lung) was greater than 100 µM and the TGI (HCT-15 colon) was greater than 100 µM. For the same compound, the TGI (COLO 205 colon) was 42.1 µM, the TGI (NCI-H23 lung) was 90.6 µM and the TGI (CCRF-CEM leukemia) was 41 µM. The TGI (IGROV1 ovarian) was greater than 100 µM, the TGI (SF-295 CNS) was greater than 100 µM and the TGI (UO-31 renal) was 80.9 µM. The TGI (SF-539 CNS) was 82.1 µM.

In the case of `O=C(c1ccco1)c1c(C(F)(F)F)n([O-])c2cc(F)c(F)cc2[n+]1=O`, the GI50 (K-562 leukemia) is reported as 0.079 µM, the TGI (K-562 leukemia) is reported as 8.34 µM and the GI50 (NCI-H522 lung) is reported as 1.88 µM. It also gave a TGI (NCI-H522 lung) of 5.47 µM, a GI50 (HCT-15 colon) of less than 0.0464 µM and a TGI (HCT-15 colon) of 0.149 µM. It also gave a GI50 (COLO 205 colon) of 0.229 µM, a TGI (COLO 205 colon) of 3.06 µM and a GI50 (NCI-H23 lung) of 0.497 µM. The TGI (NCI-H23 lung) was 1.86 µM, the TGI (CCRF-CEM leukemia) was greater than 23 µM and the GI50 (IGROV1 ovarian) was 1.07 µM. It also gave a TGI (IGROV1 ovarian) of 3.31 µM, a GI50 (SF-295 CNS) of 0.737 µM and a TGI (SF-295 CNS) of 2.17 µM. The GI50 (UO-31 renal) was 0.546 µM, the TGI (UO-31 renal) was 1.03 µM and the GI50 (SF-539 CNS) was 0.329 µM. The TGI (SF-539 CNS) was 0.679 µM.

With `C#CCNC(=O)NC(CCCCNC(=O)OCc1ccccc1)C(=O)OCc1ccccc1` (centres undefined) the TGI (K-562 leukemia) was greater than 100 µM, the TGI (NCI-H522 lung) was 17.1 µM and the TGI (HCT-15 colon) was greater than 100 µM. For the same compound, the TGI (COLO 205 colon) was 46.9 µM, the TGI (NCI-H23 lung) was greater than 100 µM and the TGI (CCRF-CEM leukemia) was greater than 100 µM. It also gave a TGI (IGROV1 ovarian) greater than 100 µM, a TGI (SF-295 CNS) greater than 100 µM and a TGI (UO-31 renal) of 44.6 µM. For the same compound, the TGI (SF-539 CNS) was 71.9 µM.

With `COc1ccc(OC)c(Cc2cnc3nc(N)nc(N)c3c2C)c1` the TGI (K-562 leukemia) was 14.9 µM, the TGI (NCI-H522 lung) was 21.8 µM and the TGI (HCT-15 colon) was 11.4 µM. For the same compound, the TGI (COLO 205 colon) was greater than 52.6 µM, the TGI (NCI-H23 lung) was greater than 50.1 µM and the TGI (CCRF-CEM leukemia) was 29.4 µM. For the same compound, the TGI (IGROV1 ovarian) was 2.61 µM, the TGI (SF-295 CNS) was 41.9 µM and the TGI (UO-31 renal) was 27.7 µM. It also gave a TGI (SF-539 CNS) of 20.3 µM.

`NCc1ccc(-c2nc(-c3ccc(Cl)c(O)c3)c(-c3ccncc3)[nH]2)cc1` showed a GI50 (K-562 leukemia) greater than 25 µM, a TGI (K-562 leukemia) greater than 25 µM and a GI50 (NCI-H522 lung) greater than 25 µM. For the same compound, the TGI (NCI-H522 lung) was greater than 25 µM, the GI50 (HCT-15 colon) was greater than 25 µM and the TGI (HCT-15 colon) was greater than 25 µM. For the same compound, the GI50 (COLO 205 colon) was greater than 25 µM, the TGI (COLO 205 colon) was greater than 25 µM and the GI50 (NCI-H23 lung) was 13.5 µM. For the same compound, the TGI (NCI-H23 lung) was greater than 25 µM, the GI50 (CCRF-CEM leukemia) was greater than 25 µM and the TGI (CCRF-CEM leukemia) was greater than 25 µM. It also gave a GI50 (IGROV1 ovarian) greater than 25 µM, a TGI (IGROV1 ovarian) greater than 25 µM and a GI50 (SF-295 CNS) greater than 25 µM. It also gave a TGI (SF-295 CNS) greater than 25 µM, a GI50 (UO-31 renal) of 17.2 µM and a TGI (UO-31 renal) greater than 25 µM. It also gave a GI50 (SF-539 CNS) greater than 25 µM and a TGI (SF-539 CNS) greater than 25 µM.

Work on `Cn1c(C(=O)c2cccc3ccccc23)nc2ccccc21` yielded a GI50 (K-562 leukemia) greater than 100 µM, a TGI (K-562 leukemia) greater than 100 µM and a GI50 (NCI-H522 lung) greater than 100 µM. The TGI (NCI-H522 lung) was greater than 100 µM, the GI50 (HCT-15 colon) was greater than 100 µM and the TGI (HCT-15 colon) was greater than 100 µM. For the same compound, the GI50 (COLO 205 colon) was greater than 100 µM, the TGI (COLO 205 colon) was greater than 100 µM and the GI50 (NCI-H23 lung) was greater than 100 µM. For the same compound, the TGI (NCI-H23 lung) was greater than 100 µM, the GI50 (CCRF-CEM leukemia) was greater than 100 µM and the TGI (CCRF-CEM leukemia) was greater than 100 µM. It also gave a GI50 (IGROV1 ovarian) greater than 100 µM, a TGI (IGROV1 ovarian) greater than 100 µM and a GI50 (SF-295 CNS) greater than 100 µM. For the same compound, the TGI (SF-295 CNS) was greater than 100 µM, the GI50 (UO-31 renal) was 46.1 µM and the TGI (UO-31 renal) was greater than 100 µM. It also gave a GI50 (SF-539 CNS) greater than 100 µM and a TGI (SF-539 CNS) greater than 100 µM.

`CN1C(=NCCO)NS(=O)(=O)c2ccccc21` was tested, and the TGI (K-562 leukemia) was greater than 100 µM, the TGI (NCI-H522 lung) was greater than 100 µM and the TGI (HCT-15 colon) was greater than 100 µM. For the same compound, the TGI (COLO 205 colon) was greater than 100 µM, the TGI (NCI-H23 lung) was greater than 100 µM and the TGI (CCRF-CEM leukemia) was greater than 100 µM. It also gave a TGI (IGROV1 ovarian) greater than 100 µM, a TGI (SF-295 CNS) greater than 100 µM and a TGI (UO-31 renal) greater than 100 µM. It also gave a TGI (SF-539 CNS) greater than 100 µM.

In the case of `O=S(=O)(NCCCNc1nccc(-c2c(-c3ccc(F)cc3)nc3sccn23)n1)c1ccc(F)cc1`, the GI50 (K-562 leukemia) is reported as 4.62 µM, the TGI (K-562 leukemia) is reported as greater than 100 µM and the GI50 (NCI-H522 lung) is reported as 10 µM. The TGI (NCI-H522 lung) was greater than 100 µM, the GI50 (HCT-15 colon) was 3.92 µM and the TGI (HCT-15 colon) was greater than 100 µM. For the same compound, the GI50 (COLO 205 colon) was 6.23 µM, the TGI (COLO 205 colon) was greater than 100 µM and the GI50 (NCI-H23 lung) was 17.8 µM. The TGI (NCI-H23 lung) was greater than 100 µM, the GI50 (CCRF-CEM leukemia) was 3.91 µM and the TGI (CCRF-CEM leukemia) was greater than 100 µM. The GI50 (IGROV1 ovarian) was 8.85 µM, the TGI (IGROV1 ovarian) was greater than 100 µM and the GI50 (SF-295 CNS) was 20.6 µM. It also gave a TGI (SF-295 CNS) greater than 100 µM, a GI50 (UO-31 renal) of 3.8 µM and a TGI (UO-31 renal) greater than 100 µM. The GI50 (SF-539 CNS) was 42.1 µM and the TGI (SF-539 CNS) was greater than 100 µM.

`O=C1/C(=C/c2ccccc2[N+](=O)[O-])COc2ccc(O)cc21` gave a GI50 (K-562 leukemia) of 0.528 µM, a TGI (K-562 leukemia) greater than 100 µM and a GI50 (NCI-H522 lung) of 0.684 µM. For the same compound, the TGI (NCI-H522 lung) was 3.65 µM, the GI50 (HCT-15 colon) was 0.417 µM and the TGI (HCT-15 colon) was 2.06 µM. For the same compound, the GI50 (COLO 205 colon) was 1.14 µM, the TGI (COLO 205 colon) was 2.89 µM and the GI50 (NCI-H23 lung) was 1.59 µM. The TGI (NCI-H23 lung) was 4.41 µM, the GI50 (CCRF-CEM leukemia) was 0.326 µM and the TGI (CCRF-CEM leukemia) was 2.52 µM. The GI50 (IGROV1 ovarian) was 0.529 µM, the TGI (IGROV1 ovarian) was 2.08 µM and the GI50 (SF-295 CNS) was 7.13 µM. For the same compound, the TGI (SF-295 CNS) was 25.6 µM, the GI50 (UO-31 renal) was 1.02 µM and the TGI (UO-31 renal) was 2.63 µM. The GI50 (SF-539 CNS) was 1.71 µM and the TGI (SF-539 CNS) was 4.27 µM.

Work on `Cc1ccc(NC(=O)/C(C#N)=C/c2ccccc2)c(C)c1` yielded a TGI (K-562 leukemia) greater than 100 µM, a TGI (NCI-H522 lung) greater than 100 µM and a TGI (HCT-15 colon) greater than 100 µM. It also gave a TGI (COLO 205 colon) greater than 100 µM, a TGI (NCI-H23 lung) greater than 100 µM and a TGI (CCRF-CEM leukemia) greater than 100 µM. The TGI (IGROV1 ovarian) was greater than 100 µM, the TGI (SF-295 CNS) was greater than 100 µM and the TGI (UO-31 renal) was greater than 100 µM. The TGI (SF-539 CNS) was greater than 100 µM.

For `N#CNC1=NC(N)C(c2nc3ccccc3[nH]2)=C(CCCC(=O)Nc2cccc([N+](=O)[O-])c2)N1` (centres undefined), the TGI (K-562 leukemia) was greater than 100 µM, the TGI (NCI-H522 lung) was greater than 100 µM and the TGI (HCT-15 colon) was greater than 100 µM. The TGI (COLO 205 colon) was greater than 100 µM, the TGI (NCI-H23 lung) was greater than 100 µM and the TGI (CCRF-CEM leukemia) was greater than 100 µM. For the same compound, the TGI (IGROV1 ovarian) was greater than 100 µM, the TGI (SF-295 CNS) was greater than 100 µM and the TGI (UO-31 renal) was greater than 100 µM. The TGI (SF-539 CNS) was greater than 100 µM.
